Entries after “also recorded” stand apart in the source; their conditions may differ.
Tests used:
[1] = tested on: female Han Wistar rat (embryo and foetus); assay: Screening study of effects on development of the embryo and foetus after gavage of pregnant rats (similar to OECD 422); assay type: in vivo; settings: for Bone and cartilage abnormalities and variations / ossification and supernumerary ribs; test item-related effects in the foetuses / Weights of the foetuses: 100 mg/kg body weight/day to dams
Experimental: The purpose of this study was to detect effects of 4 test items or compounds on the development of the embryo and foetus consequent to exposure of the female Han Wistar rat to the test items from day 6 post coitum (implantation) to day 20 post coitum (the day prior to Caesarean section). Particular attention was given to the foetal skeleton. Each group received one test compound, at a dose level of 100 or 500 mg/kg/day. The results were compared to a negative control group, which were administered distilled water (Aqua dest.).
Each group consisted of 5 mated females, treated by gavage, once daily as follows:
A standard dose volume of […] body weight with a daily adjustment to the actual body weight was used.
The foetuses were removed from the uterus, sexed, weighed individually, examined for gross external abnormalities, sacrificed by a subcutaneous injection of sodium pentobarbital, eviscerated and with the exception of over the paws, the skin was removed and discarded. Carcasses were processed through solutions of ethanol, glacial acetic acid with Alcian blue (for cartilage staining), potassium hydroxide with Alizarin red S (for clearing and staining ossified bone) and aqueous glycerine for preservation and storage. The skeletons were examined and all abnormal findings and variations were recorded.

[2] = EU classification / screening test; cited from earlier work
rat = settings: in vivo; cited from earlier work
[3] = 500 mg/kg body weight/day to dams
[4] = 500 mg/kg body weight/day, gavage
[5] = 500 mg/kg body weight/day, gavage once daily, day 6-20 post coitum, 5 mated females per group
[6] = 100 mg/kg body weight/day, gavage

Compound	Incidence of zygomatic arch fusion in the skull of foetuses [1, 3]	Weights of the foetuses (male and female) [1, 3]	Maternal absolute body weight [1, 4]	Maternal body weight gain [1, 4]	Maternal corrected body weight gain [1, 4]	Maternal food consumption at start of treatment, days 6-9 p.c. [1, 4]	Bedding in the mouth (females/dams affected) [1, 5]	Bone and cartilage abnormalities and variations / ossification and supernumerary ribs; test item-related effects in the foetuses [1]	Weights of the foetuses [1]	Maternal mean body weight, body weight gain and corrected body weight gain [1, 6]	Maternal mean food consumption vs control group [1, 6]	Reprotoxicity [2]	further results
CCCN1CCCC1=O [N-n-propylpyrrolidone]	increased incidence	statistically significantly reduced	at no time statistically significantly reduced	statistically significantly reduced	reduced without statistical significance	statistically significantly reduced	all females						Incidence of non-ossified cervical vertebral bodies and supernumerary ribs in foetuses [1, 3]: slightly increased incidence; Mean food consumption compared to the control group ([1]; 500 mg/kg body weight/day, treatment period days 6-21 p.c.): −9.1%; Maternal corrected body weight gain ([1]; 500 mg/kg body weight/day, control group 11.1%): 7.6%; Maternal body weight gain over the treatment period ([1]; 500 mg/kg body weight/day, control group 49%): 36%
CCCCN1CCCC1=O [N-n-butylpyrrolidone]								no test item-related findings; also recorded: No test item-related effects	not affected	No effects	No effects; also recorded: not considered to have been affected		Bedding in the mouth (females affected) ([1]; 100 mg/kg body weight/day, gavage once daily, day 6-20 post coitum, 5 mated females per group): one female
CN1CCCC1=O [NMP, N-methylpyrrolidone]												reprotoxic category 2	Toxicity, LD50 oral rat (rat): 3914 mg/kg
CC(C)CN1CCCC1=O [N-isobutylpyrrolidone]								no test item-related findings; also recorded: No test item-related effects	not affected	no effects; also recorded: not affected	no effects		
CC1CCC(=O)N1C (centres unmarked) [DMP, 1,5-dimethylpyrrolidone]												suspected as being reprotoxic	
CC(C)N1CCCC1=O [N-isopropylpyrrolidone]	slightly increased	statistically significantly reduced	did not have a clear effect	statistically significantly reduced	reduced but not statistically significantly	decreased slightly	4						Incidence of cervical ribs in foetuses [1, 3]: clearly increased incidence; Incompletely ossified cranial structures in foetuses [1, 3]: slightly increased; Number of foetuses per dam [1, 3]: decreased; Post-implantation loss and embryonic resorptions [1, 3]: increased; Maternal mean food consumption after days 6-9 p.c. / overall vs control group [1, 4]: recovered thereafter
